Measurements: the NIST ThermoML archive (doi:10.1016/j.jct.2017.07.008)
Several values for one entry are separate records, joined by “and”; a condition that tells them apart may be missing. Equal values may be shown once.

Settings: for mass density / viscosity / speed of sound / vapor or sublimation pressure: Liquid; for mass density: Vibrating tube method; for surface tension liquid-gas: Drop volume; for viscosity: Capillary tube (Ostwald / Ubbelohde) method; for speed of sound: Frequency=3 MHz, Single path-length method; for vapor or sublimation pressure: Ebulliometric method (Recirculating still)

O=Cc1cccs1 [2-thiophenealdehyde]
Settings | mass density | speed of sound [m/s] | viscosity [mPa·s]
313.15 K, 65000 kPa | 1238.47 kg/m3 | – | –
315.65 K, 100 kPa | 1199.69 kg/m3 | 1404.1 | 1.528
318.15 K, 100 kPa | 1197.17 kg/m3 and 1197.16 kg/m3 | 1395.9 | 1.473
318.15 K, 2000 kPa | 1198.45 kg/m3 | – | –
318.15 K, 5000 kPa | 1200.45 kg/m3 | – | –
318.15 K, 7000 kPa | 1201.76 kg/m3 | – | –
318.15 K, 10000 kPa | 1203.7 kg/m3 | – | –
318.15 K, 15000 kPa | 1206.86 kg/m3 | – | –
318.15 K, 20000 kPa | 1209.92 kg/m3 | – | –
318.15 K, 25000 kPa | 1212.9 kg/m3 | – | –
318.15 K, 30000 kPa | 1215.8 kg/m3 | – | –
318.15 K, 35000 kPa | 1218.62 kg/m3 | – | –
318.15 K, 40000 kPa | 1221.37 kg/m3 | – | –
318.15 K, 45000 kPa | 1224.05 kg/m3 | – | –
318.15 K, 50000 kPa | 1226.67 kg/m3 | – | –
318.15 K, 55000 kPa | 1229.23 kg/m3 | – | –
318.15 K, 60000 kPa | 1231.73 kg/m3 | – | –
318.15 K, 65000 kPa | 1234.18 kg/m3 | – | –
320.65 K, 100 kPa | 1194.65 kg/m3 | 1387.6 | 1.418
323.15 K, 100 kPa | 1192.12 kg/m3 | 1379.3 | 1.375
323.15 K, 2000 kPa | 1193.44 kg/m3 | – | –
323.15 K, 5000 kPa | 1195.49 kg/m3 | – | –
323.15 K, 7000 kPa | 1196.83 kg/m3 | – | –
323.15 K, 10000 kPa | 1198.82 kg/m3 | – | –
323.15 K, 15000 kPa | 1202.04 kg/m3 | – | –
323.15 K, 20000 kPa | 1205.17 kg/m3 | – | –
323.15 K, 25000 kPa | 1208.22 kg/m3 | – | –
323.15 K, 30000 kPa | 1211.17 kg/m3 | – | –
323.15 K, 35000 kPa | 1214.05 kg/m3 | – | –
323.15 K, 40000 kPa | 1216.86 kg/m3 | – | –
323.15 K, 45000 kPa | 1219.59 kg/m3 | – | –
323.15 K, 50000 kPa | 1222.26 kg/m3 | – | –
323.15 K, 55000 kPa | 1224.86 kg/m3 | – | –
323.15 K, 60000 kPa | 1227.41 kg/m3 | – | –
323.15 K, 65000 kPa | 1229.89 kg/m3 | – | –
325.65 K, 100 kPa | 1189.6 kg/m3 | 1371.1 | 1.325
328.15 K, 100 kPa | 1187.08 kg/m3 and 1187.07 kg/m3 | 1362.8 | 1.275
328.15 K, 2000 kPa | 1188.42 kg/m3 | – | –
328.15 K, 5000 kPa | 1190.52 kg/m3 | – | –
328.15 K, 7000 kPa | 1191.9 kg/m3 | – | –
328.15 K, 10000 kPa | 1193.93 kg/m3 | – | –
328.15 K, 15000 kPa | 1197.23 kg/m3 | – | –
328.15 K, 20000 kPa | 1200.43 kg/m3 | – | –
328.15 K, 25000 kPa | 1203.54 kg/m3 | – | –
328.15 K, 30000 kPa | 1206.56 kg/m3 | – | –
328.15 K, 35000 kPa | 1209.49 kg/m3 | – | –
328.15 K, 40000 kPa | 1212.35 kg/m3 | – | –
328.15 K, 45000 kPa | 1215.13 kg/m3 | – | –
328.15 K, 50000 kPa | 1217.85 kg/m3 | – | –
328.15 K, 55000 kPa | 1220.5 kg/m3 | – | –
328.15 K, 60000 kPa | 1223.09 kg/m3 | – | –
328.15 K, 65000 kPa | 1225.62 kg/m3 | – | –
330.65 K, 100 kPa | 1184.55 kg/m3 | 1354.6 | 1.233
333.15 K, 100 kPa | 1182.02 kg/m3 | 1346.4 | 1.194
333.15 K, 2000 kPa | 1183.41 kg/m3 | – | –
333.15 K, 5000 kPa | 1185.56 kg/m3 | – | –
333.15 K, 7000 kPa | 1186.96 kg/m3 | – | –
333.15 K, 10000 kPa | 1189.04 kg/m3 | – | –
333.15 K, 15000 kPa | 1192.42 kg/m3 | – | –
333.15 K, 20000 kPa | 1195.69 kg/m3 | – | –
333.15 K, 25000 kPa | 1198.86 kg/m3 | – | –
333.15 K, 30000 kPa | 1201.94 kg/m3 | – | –
333.15 K, 35000 kPa | 1204.93 kg/m3 | – | –
333.15 K, 40000 kPa | 1207.85 kg/m3 | – | –
333.15 K, 45000 kPa | 1210.68 kg/m3 | – | –
333.15 K, 50000 kPa | 1213.45 kg/m3 | – | –
333.15 K, 55000 kPa | 1216.14 kg/m3 | – | –
333.15 K, 60000 kPa | 1218.77 kg/m3 | – | –
333.15 K, 65000 kPa | 1221.34 kg/m3 | – | –
335.65 K, 100 kPa | 1179.49 kg/m3 | 1338.2 | 1.155
338.15 K, 100 kPa | 1176.97 kg/m3 | 1330.2 | 1.121
338.15 K, 2000 kPa | 1178.39 kg/m3 | – | –
338.15 K, 5000 kPa | 1180.59 kg/m3 | – | –
338.15 K, 7000 kPa | 1182.03 kg/m3 | – | –
338.15 K, 10000 kPa | 1184.16 kg/m3 | – | –
338.15 K, 15000 kPa | 1187.61 kg/m3 | – | –
338.15 K, 20000 kPa | 1190.94 kg/m3 | – | –
338.15 K, 25000 kPa | 1194.18 kg/m3 | – | –
338.15 K, 30000 kPa | 1197.32 kg/m3 | – | –
338.15 K, 35000 kPa | 1200.37 kg/m3 | – | –
338.15 K, 40000 kPa | 1203.34 kg/m3 | – | –
338.15 K, 45000 kPa | 1206.23 kg/m3 | – | –
338.15 K, 50000 kPa | 1209.04 kg/m3 | – | –
338.15 K, 55000 kPa | 1211.78 kg/m3 | – | –
338.15 K, 60000 kPa | 1214.46 kg/m3 | – | –
338.15 K, 65000 kPa | 1217.07 kg/m3 | – | –

Settings | surface tension liquid-gas [mN/m] | vapor or sublimation pressure [kPa]
315.65 K | 43.89 | –
318.15 K | 43.6 | –
320.65 K | 43.28 | –
323.15 K | 43.01 | –
325.65 K | 42.68 | –
328.15 K | 42.39 | –
330.65 K | 42.09 | –
333.15 K | 41.76 | –
335.65 K | 41.46 | –
336.42 K | – | 0.66
338.15 K | 41.21 | –
340.7 K | – | 0.85
345.63 K | – | 1.135
349.65 K | – | 1.4
353.7 K | – | 1.725
356.19 K | – | 1.915
359.55 K | – | 2.265
361.67 K | – | 2.55
364.68 K | – | 2.925
366.94 K | – | 3.265
368.98 K | – | 3.6
372.07 K | – | 4.14
374.68 K | – | 4.645
376.79 K | – | 5.065
377.74 K | – | 5.3
379.92 K | – | 5.8
382.69 K | – | 6.5
386.72 K | – | 7.585
389.41 K | – | 8.415
391.94 K | – | 9.285
394.82 K | – | 10.41
399.42 K | – | 12.29
401.02 K | – | 13.11
403 K | – | 14.06
404.9 K | – | 15.05
407.06 K | – | 16.14
408.95 K | – | 17.25
411.16 K | – | 18.6
412.82 K | – | 19.66
413.9 K | – | 20.41
415.91 K | – | 21.8
418.01 K | – | 23.36
420.05 K | – | 24.95
422.07 K | – | 26.6
424.04 K | – | 28.25
426.15 K | – | 30.11
428.14 K | – | 32.01
429.02 K | – | 32.92
430.17 K | – | 34.05
431.54 K | – | 35.47
433.17 K | – | 37.2
